Measured values reported in patent publication EP4050002A1, “ANTI-PROLIFERATIVE AGENTS” (First Health Pharmaceuticals B.V., priority 2021, dated 2022).

Legend:
CYP2D6 = biological target: T1, CYP2D6 (Homo sapiens, UniProt P10635); assay: Cytochrome P450 inhibition; type: in vitro ADME; conditions: 2D6, Human Liver Microsome
T1 construct: 158 µl of Human Liver Microsome working stock solution; from tissue; host or cells: human liver microsomes
Description: (§1) Ready to use PBS, 9.07-10.00 g, (Sigma Aldrich, catalogue code P3813) was dissolved in […] MilliQ water and pH was adjusted to 7.4.
(§2) Substrate pool was done pooling 14 µl of Phenacitin 10 mM (CYP1A2 substrate, Sigma Aldrich, catalogue number 7740), 14 µl Diclofenac 10 mM (CYP2C9 substrate, Sigma Aldrich, catalogue number D6899), 14 µl Dextromethorphan 10 mM (CYP2D6 substrate, Sigma Aldrich, catalogue number D9684), 20.28 µl Midazolam 2.76 mM (CYP3A4 substrate, Sigma Aldrich, catalogue number UC430) and 14 µl Bupropion HCl 10 mM (CYP2B6 substrate, Sigma Aldrich, catalogue number B102), and diluted to 2800 µl with PBS buffer pH 7.4.
(§3) Inhibitors of the cytochromes tested were the following: Alpha-naphthoflavone (CYP1A2, Sigma Aldrich, catalogue number N5757); Sulfaphenazole (CYP2C9, Sigma Aldrich, catalogue number S0758); Ticlopidine (CYP2B6, Sigma Aldrich, catalogue number T6654); Quinidine (CYP2D6, Sigma Aldrich, catalogue number Q3625); Ketoconazole (CYP3A4, Sigma Aldrich, catalogue number K1003).
(§4) 158 µl of Human Liver Microsome working stock solution in PBS buffer pH7.4 was added to reaction plate (0.253 mg/ml, 158 µl/well).
(§5) Test compounds and inhibitors were prepared in DMSO and diluted with buffer to prepare working solution with the final concentration of 3000, 999, 333, 111, 37 and 12 µM. 2 µl of working solution of the test compounds or inhibitors listed above were added to reaction plate (2 µl/ well). For control, 2 µl of Acetonitrile containing DMSO (without inhibitor) was added to reaction plate. 20 µl of substrate pool was added to all the wells of the reaction plate. The samples were mixed using the vortex and pre-incubated at 37°C for 5 min.
(§6) The NADPH solution 10 mM in PBS buffer pH 7.4 was pre-warmed at 37°C for 5 min. 20 µl of pre-warmed NADPH solution was added to the reaction plate and then incubated at 37°C for 10 min.
(§7) The reaction was terminated by adding cold ACN (200 µl/well) to the reaction mixture and centrifuged at 4,000 rpm for 20 minutes.
(§8) After centrifugation, 200 µl of supernatant was submitted for LC-MS/MS analysis. Mobile phases include 0.1% formic acid in water and methanol:acetonitrile, 50% (v/v).
(§9) Column is Phenomenex kinetic C18, 50 x 4.6 mm, […]. IC50 values were calculated using Graphpad Prism (version 4.03).

CYP3A4 = biological target: T2, CYP3A4 (Homo sapiens, UniProt P08684); assay: Cytochrome P450 inhibition; type: in vitro ADME; conditions: 3A4, Human Liver Microsome
T2 construct: 158 µl of Human Liver Microsome working stock solution; from tissue; host or cells: human liver microsomes
Description: as §1, §2, §3, §4, §5, §6, §7, §8, §9

CYP1A2 = biological target: T3, CYP1A2 (Homo sapiens, UniProt P05177); assay: Cytochrome P450 inhibition; type: in vitro ADME; conditions: 1A2, Human Liver Microsome
T3 construct: 158 µl of Human Liver Microsome working stock solution; from tissue; host or cells: human liver microsomes
Description: as §1, §2, §3, §4, §5, §6, §7, §8, §9

CYP2C9 = biological target: T4, CYP2C9 (Homo sapiens, UniProt P11712); assay: Cytochrome P450 inhibition; type: in vitro ADME; conditions: 2C9, Human Liver Microsome
T4 construct: 158 µl of Human Liver Microsome working stock solution; from tissue; host or cells: human liver microsomes
Description: as §1, §2, §3, §4, §5, §6, §7, §8, §9

CYP2B6 = biological target: T5, CYP2B6 (Homo sapiens, UniProt P20813); assay: Cytochrome P450 inhibition; type: in vitro ADME; conditions: 2B6, Human Liver Microsome
T5 construct: 158 µl of Human Liver Microsome working stock solution; from tissue; host or cells: human liver microsomes
Description: as §1, §2, §3, §4, §5, §6, §7, §8, §9

hERG channels = biological target: T6, hERG channels (Homo sapiens, UniProt Q12809); assay: hERG inhibition (whole cell patch clamp, HEK293); type: cell-based; conditions: 300nM to 30µM, HEK293 cells
T6 construct: host or cells: HEK293
Description: HEK293 cells (Eurofins Discover X, Catalogue number CYL3039) stably expressing hERG channels (human ether-a-go-go-related gene potassium channels were plated onto 12 mm coverslips, 12 to 18 h before performing the assay. Cells with coverslips were placed in recording chamber of molecular devices profiled with extracellular solution. Glass capillary with a tip resistance from […] was back filled with intracellular solution. Giga seal was attained using a sequence of positive and negative pressure.
Whole cell configuration was attained using a gentle suction. Cell capacitance and series resistance compensation was done using software controls provided in multi clamp 700B commander. The cells are maintained at a holding potential of -80mV; hERG currents are activated by cell depolarization to +20mV for 2 seconds followed by a 3 second repolarization to -60mV (frequency: 0.05Hz).
Electrical signals were filtered at 2 KHz and digitized at 5 KHz. Series resistance compensation was typically 60% to 70% such that voltage errors were less than 5 mV. […] Data were acquired using Clampex acquisition software. […]
Amplitude of the tail current upon repolarization to -60mV (pA) and inhibition of the hERG tail current with respect to untreated cells (%) are measured. […]

Plasma stability = type: in vitro ADME; conditions: Human plasma
Description: Plasma previously separated from whole blood in EDTA-treated tubes and frozen; blood samples obtained from healthy volunteers, Sprague Dawley rats and CD1 mice, was thawed at room temperature and centrifuged at 1400x RCF 4°C, for 15 minutes. Approximately 90% of the clear supernatant fraction was transferred to a separate tube and was used for the assay.
Stocks (1 mM and 25 µM) of test compound were prepared in acetonitrile:water (50:50 v/v). Plasma samples were heat inactivated at 54°C. 3 µl of 25 µM test compound were added to 72 µl of heat inactivated plasma. A 50 µL aliquot of the mixture was taken and crashed with 200 µl of acetonitrile containing Telmisartan 100 ng/ml as internal standard and was further processed along with other time points: 10, 30 60 and 120 minutes.
Final working stock of 1 µM was prepared by diluting 12 µl of 25 µM stock in 288 µl of plasma. The obtained solution (300 µl) of plasma containing the test compound was incubated for […] at 37°C in shaker water bath with gentle shaking. 50 µl aliquot of sample at 10, 30, 60 and 120 min was precipitated immediately with 200 µl of acetonitrile containing internal standard and centrifuged at 4000x RCF, 4°C for 20 minutes. 150 µl of supernatant was diluted with 150 µl of water and analyzed by LC-MS/MS.
The % remaining of the test substance was calculated as: (Peak Area ratio at time (min))/(Peak Area Ratio at 0 min) ^∗ 100
The API400 MS and Agilent 1260 Infinity LC were used. Mobile Phase included 10mM Ammonium acetate with 0.1% formic acid in MilliQ water, and Methanol. The column was Phenomenex, KINETIC EVO C18 100A 5u 50^∗4.6 mm, 10 µl injection volume.

T4 sequence (P11712 whole entry): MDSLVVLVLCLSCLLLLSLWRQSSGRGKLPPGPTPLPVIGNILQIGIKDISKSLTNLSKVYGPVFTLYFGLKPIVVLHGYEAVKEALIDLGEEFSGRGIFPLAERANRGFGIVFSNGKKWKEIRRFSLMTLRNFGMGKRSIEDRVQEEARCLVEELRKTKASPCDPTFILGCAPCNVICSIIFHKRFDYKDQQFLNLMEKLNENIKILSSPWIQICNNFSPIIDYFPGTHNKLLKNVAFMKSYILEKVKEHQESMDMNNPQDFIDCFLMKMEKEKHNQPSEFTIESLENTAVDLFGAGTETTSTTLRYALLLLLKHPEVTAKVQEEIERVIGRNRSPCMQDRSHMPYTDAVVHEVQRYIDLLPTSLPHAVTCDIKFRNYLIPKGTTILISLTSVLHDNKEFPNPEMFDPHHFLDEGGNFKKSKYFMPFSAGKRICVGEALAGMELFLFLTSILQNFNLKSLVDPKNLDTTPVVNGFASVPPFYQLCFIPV
T6 sequence (Q12809 whole entry): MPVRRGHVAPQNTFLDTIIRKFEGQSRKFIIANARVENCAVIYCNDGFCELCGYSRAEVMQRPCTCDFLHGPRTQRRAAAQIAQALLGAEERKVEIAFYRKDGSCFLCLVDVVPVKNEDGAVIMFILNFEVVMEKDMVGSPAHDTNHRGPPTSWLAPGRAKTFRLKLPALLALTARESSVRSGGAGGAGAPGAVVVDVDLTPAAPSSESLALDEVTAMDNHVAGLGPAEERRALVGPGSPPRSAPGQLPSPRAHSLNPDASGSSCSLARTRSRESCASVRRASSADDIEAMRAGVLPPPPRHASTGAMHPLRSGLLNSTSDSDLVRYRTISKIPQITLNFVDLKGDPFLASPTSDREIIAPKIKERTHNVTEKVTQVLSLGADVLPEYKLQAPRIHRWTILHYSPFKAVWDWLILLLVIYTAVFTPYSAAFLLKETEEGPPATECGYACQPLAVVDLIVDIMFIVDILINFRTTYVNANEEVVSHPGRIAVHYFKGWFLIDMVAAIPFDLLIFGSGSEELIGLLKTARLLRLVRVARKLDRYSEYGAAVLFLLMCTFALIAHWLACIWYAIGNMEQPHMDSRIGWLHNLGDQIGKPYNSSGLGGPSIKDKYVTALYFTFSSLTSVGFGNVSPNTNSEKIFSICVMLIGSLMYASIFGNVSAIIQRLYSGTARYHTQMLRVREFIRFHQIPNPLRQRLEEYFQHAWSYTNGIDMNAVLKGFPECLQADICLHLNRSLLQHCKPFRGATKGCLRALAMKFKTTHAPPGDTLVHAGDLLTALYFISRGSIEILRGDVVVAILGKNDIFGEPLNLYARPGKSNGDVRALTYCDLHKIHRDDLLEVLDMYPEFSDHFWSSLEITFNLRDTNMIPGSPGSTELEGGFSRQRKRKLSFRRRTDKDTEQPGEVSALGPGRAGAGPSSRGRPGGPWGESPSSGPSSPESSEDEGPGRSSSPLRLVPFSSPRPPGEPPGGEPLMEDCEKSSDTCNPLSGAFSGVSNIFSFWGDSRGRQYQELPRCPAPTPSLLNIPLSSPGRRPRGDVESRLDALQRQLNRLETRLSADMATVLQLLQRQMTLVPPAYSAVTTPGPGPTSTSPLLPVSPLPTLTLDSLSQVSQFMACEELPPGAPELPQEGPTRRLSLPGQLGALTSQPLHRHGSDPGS
T3 sequence (P05177 whole entry): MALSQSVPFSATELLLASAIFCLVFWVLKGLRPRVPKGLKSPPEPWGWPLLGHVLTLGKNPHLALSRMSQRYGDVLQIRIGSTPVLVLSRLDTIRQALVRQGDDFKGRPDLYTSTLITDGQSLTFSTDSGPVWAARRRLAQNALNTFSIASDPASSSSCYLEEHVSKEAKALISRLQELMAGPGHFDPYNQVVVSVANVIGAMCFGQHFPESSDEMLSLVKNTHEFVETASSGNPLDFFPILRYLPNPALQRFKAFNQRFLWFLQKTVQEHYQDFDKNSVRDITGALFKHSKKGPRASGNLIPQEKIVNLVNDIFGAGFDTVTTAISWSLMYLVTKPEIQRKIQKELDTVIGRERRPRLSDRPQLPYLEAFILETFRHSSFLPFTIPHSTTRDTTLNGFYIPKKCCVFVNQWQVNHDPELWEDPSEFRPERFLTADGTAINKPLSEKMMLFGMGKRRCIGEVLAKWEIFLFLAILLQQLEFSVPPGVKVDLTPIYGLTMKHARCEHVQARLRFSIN
T5 sequence (P20813 whole entry): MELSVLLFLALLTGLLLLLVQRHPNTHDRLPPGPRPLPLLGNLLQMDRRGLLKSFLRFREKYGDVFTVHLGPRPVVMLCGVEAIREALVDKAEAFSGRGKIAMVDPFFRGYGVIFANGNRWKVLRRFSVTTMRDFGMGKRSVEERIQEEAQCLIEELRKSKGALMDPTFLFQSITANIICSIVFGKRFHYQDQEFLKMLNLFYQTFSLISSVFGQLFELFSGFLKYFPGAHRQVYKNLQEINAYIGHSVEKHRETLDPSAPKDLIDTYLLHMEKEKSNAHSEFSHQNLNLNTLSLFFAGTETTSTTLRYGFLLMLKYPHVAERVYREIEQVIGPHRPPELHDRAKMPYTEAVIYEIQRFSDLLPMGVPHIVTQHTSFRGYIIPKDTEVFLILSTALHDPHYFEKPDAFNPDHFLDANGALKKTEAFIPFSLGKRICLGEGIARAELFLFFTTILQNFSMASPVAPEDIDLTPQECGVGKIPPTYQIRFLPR
T2 sequence (P08684 whole entry): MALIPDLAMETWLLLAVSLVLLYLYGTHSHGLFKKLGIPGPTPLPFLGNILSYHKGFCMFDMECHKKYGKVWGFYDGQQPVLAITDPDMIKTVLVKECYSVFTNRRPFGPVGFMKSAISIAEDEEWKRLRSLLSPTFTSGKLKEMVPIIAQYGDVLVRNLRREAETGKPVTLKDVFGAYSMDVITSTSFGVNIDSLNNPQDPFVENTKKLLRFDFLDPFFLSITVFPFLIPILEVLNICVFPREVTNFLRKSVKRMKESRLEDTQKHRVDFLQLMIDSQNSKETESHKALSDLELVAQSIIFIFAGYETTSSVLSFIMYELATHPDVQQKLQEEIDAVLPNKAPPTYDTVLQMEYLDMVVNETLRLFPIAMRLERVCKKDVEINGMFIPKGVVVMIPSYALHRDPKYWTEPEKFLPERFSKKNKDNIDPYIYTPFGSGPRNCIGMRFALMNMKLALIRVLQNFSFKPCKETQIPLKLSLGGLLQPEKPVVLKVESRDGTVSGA
T1 sequence (P10635 whole entry): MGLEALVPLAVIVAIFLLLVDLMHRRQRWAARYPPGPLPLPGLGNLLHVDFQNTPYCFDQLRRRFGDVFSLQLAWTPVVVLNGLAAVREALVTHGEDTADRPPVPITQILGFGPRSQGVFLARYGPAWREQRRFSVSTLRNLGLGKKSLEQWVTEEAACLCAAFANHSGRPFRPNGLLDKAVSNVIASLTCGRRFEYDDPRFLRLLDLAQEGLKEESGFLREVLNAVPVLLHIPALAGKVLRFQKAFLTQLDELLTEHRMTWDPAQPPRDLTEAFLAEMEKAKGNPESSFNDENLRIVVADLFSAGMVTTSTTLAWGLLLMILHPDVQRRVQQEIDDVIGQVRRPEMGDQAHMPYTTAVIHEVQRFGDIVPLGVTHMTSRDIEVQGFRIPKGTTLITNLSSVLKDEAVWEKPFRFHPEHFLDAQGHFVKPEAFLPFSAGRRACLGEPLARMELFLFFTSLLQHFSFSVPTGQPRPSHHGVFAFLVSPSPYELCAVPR

## CCCCc1cn(-c2ccc(-c3nnc(-c4ccccc4C(F)(F)F)o3)cc2)nn1 [Compound 5]
CYP2D6
  IC50: > 30 µM
CYP3A4
  IC50: > 30 µM
CYP1A2
  IC50: > 30 µM
CYP2C9
  IC50: > 30 µM
CYP2B6
  IC50: > 30 µM
hERG channels
  effect on the conductance of the hERG channel: No effect on the conductance of the hERG channel
Plasma stability; 0 minutes
  % Remaining ± SD: 100.0 ± 3.9%
Plasma stability; 10 minutes
  % Remaining ± SD: 107.1 ± 7.7%
Plasma stability; 30 minutes
  % Remaining ± SD: 87.2 ± 10.3%
Plasma stability; 60 minutes
  % Remaining ± SD: 88.3 ± 7.0%
Plasma stability; 120 minutes
  % Remaining ± SD: 88.2 ± 8.2%
